Where two headings read alike, the source gives them in different places.
Legend:
osteoclast precursors = experiment: Osteoclast tartrate-resistant acid phosphatase assay; type: cell-based; settings: Osteoclast, 7-14 days, RANKL and M-CSF
[1] = molecular target: unphosphorylated c-FMS kinase (uFMS, Seq. ID no. 1) (Homo sapiens (Human), UniProt P07333); experiment: uFMS kinase assay (ADP production coupled to pyruvate kinase/lactate dehydrogenase); type: biochemical
Procedure, shortened: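 Unphosphorylated FMS (10 nM) with polyE4Y 1 mg/mL and 500 μM ATP in 90 mM Tris pH 7.5, 10 mM MgCl2, 0.2% octyl-glucoside, 1% DMSO. ADP formation was coupled via pyruvate kinase/LDH to NADH oxidation, followed at A340 for 4 h at 30° C.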

[2] = molecular target: unphosphorylated c-KIT kinase (uKIT, Seq. ID no. 2) (Homo sapiens (Human), UniProt P10721); experiment: uKit kinase assay (coupled pyruvate kinase/lactate dehydrogenase); type: biochemical; settings: enzymatic assay, ATP 2000 μM
Procedure, shortened: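 The read-out was a continuous PK/LDH-coupled decrease in NADH absorbance at 340 nm, monitored at 30 °C over 4 h. IC50 came from % inhibition based on rates at 3–4 h. The GST-tagged unphosphorylated KIT (12 nM) was used with polyE4Y substrate, 2000 μM ATP and 10 mM Mg2+ at pH 7.5, with serially diluted compound.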

M-NFS-60 cells = experiment: M-NFS-60 cell proliferation assay (resazurin); type: cell-based; settings: 67 h incubation
Procedure, shortened: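 Cells kept in medium containing 20 ng/mL mouse recombinant M-CSF. Fluorescence was read at ex 540/em 600 nm, and IC50 was fitted from percent inhibition across a range of inhibitor concentrations.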

[3] = molecular target: c-FMS kinase in THP-1 cells (Homo sapiens (Human), UniProt P07333); experiment: Phospho-FMS ELISA assay in THP-1 cells; type: cell-based
[4] = enzymatic assay, ATP 500 μM, read-out: uFMS
[5] = 4 h compound, M-CSF stimulation 5 min, read-out: pFMS inhibition in THP-1 cells

Chain of unphosphorylated c-KIT kinase (uKIT, Seq. ID no. 2) (P10721 other isoform, or with tags, fused parts or gaps): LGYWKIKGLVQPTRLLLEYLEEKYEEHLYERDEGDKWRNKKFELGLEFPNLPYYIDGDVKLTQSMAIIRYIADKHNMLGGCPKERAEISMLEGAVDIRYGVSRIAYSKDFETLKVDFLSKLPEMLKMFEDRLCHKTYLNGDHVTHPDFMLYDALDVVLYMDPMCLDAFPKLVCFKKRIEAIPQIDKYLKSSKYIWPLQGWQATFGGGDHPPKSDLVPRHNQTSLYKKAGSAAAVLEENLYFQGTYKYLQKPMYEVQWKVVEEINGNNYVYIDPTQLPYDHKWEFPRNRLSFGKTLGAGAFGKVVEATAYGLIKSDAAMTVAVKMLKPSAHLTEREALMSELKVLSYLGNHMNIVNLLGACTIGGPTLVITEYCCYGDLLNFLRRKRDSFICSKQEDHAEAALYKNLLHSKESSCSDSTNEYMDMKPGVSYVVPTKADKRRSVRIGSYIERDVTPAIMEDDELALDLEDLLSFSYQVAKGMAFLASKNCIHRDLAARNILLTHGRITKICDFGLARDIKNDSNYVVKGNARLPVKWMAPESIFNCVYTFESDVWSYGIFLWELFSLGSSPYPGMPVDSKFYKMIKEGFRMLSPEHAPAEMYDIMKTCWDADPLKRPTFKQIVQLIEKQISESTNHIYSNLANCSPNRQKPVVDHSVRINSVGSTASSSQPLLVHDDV
Chain of c-FMS kinase in THP-1 cells (P07333 20-972): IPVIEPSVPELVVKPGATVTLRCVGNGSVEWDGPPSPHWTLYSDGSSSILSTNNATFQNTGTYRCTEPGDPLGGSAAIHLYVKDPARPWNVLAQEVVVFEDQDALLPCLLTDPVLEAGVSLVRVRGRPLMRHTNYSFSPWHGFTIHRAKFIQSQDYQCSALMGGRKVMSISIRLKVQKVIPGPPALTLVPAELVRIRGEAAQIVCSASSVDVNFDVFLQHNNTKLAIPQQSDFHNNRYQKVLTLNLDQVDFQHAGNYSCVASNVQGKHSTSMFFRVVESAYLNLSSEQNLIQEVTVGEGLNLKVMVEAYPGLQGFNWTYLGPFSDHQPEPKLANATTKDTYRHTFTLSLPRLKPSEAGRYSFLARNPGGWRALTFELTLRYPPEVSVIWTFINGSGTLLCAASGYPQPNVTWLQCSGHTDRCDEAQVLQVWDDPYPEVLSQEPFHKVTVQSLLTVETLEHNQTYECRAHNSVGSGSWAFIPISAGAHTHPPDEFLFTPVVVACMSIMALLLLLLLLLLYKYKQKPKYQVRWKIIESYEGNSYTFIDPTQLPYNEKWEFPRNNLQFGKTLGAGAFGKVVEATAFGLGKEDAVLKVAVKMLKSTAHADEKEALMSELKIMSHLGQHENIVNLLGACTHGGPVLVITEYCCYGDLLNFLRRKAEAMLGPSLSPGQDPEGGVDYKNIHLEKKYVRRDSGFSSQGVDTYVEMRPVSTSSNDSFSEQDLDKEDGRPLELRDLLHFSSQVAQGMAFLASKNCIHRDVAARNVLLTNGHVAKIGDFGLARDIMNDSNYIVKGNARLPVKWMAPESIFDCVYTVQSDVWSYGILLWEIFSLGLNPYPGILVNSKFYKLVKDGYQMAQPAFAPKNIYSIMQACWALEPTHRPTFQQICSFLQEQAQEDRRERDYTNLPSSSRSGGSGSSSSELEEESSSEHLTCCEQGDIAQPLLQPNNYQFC
Chain of unphosphorylated c-FMS kinase (uFMS, Seq. ID no. 1) (P07333 538-972): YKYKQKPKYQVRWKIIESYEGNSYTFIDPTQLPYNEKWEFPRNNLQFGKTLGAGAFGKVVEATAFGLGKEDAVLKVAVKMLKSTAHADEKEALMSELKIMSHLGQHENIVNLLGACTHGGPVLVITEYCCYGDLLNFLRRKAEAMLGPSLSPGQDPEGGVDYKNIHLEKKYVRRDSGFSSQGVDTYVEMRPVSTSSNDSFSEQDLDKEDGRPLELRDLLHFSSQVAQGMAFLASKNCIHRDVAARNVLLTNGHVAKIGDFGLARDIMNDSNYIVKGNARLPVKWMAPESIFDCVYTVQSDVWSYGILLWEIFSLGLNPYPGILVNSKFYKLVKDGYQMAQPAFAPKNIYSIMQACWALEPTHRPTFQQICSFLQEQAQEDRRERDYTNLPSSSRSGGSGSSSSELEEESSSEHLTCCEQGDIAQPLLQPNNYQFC

Row | IC50 (osteoclast precursors) [nM] | IC50 [1, 4] [nM] | IC50 [2] [nM] | IC50 [3, 5] [nM] | SMILES | IC50 (M-NFS-60 cells) [nM] | IC50 ([1]; uFMS, enzymatic assay, ATP 500 μM) [nM] | IC50 [3] [nM] | IC50 ([1]; Table 4, read-out: c-FMS IC50) [nM]
1 | < 10 | < 10 | 10 to 100 | < 10 | CC(C)N1CCN(C(=O)Nc2ccc(Oc3ccnc(-c4cnn(C)c4)c3)cn2)C1=O [Example 36, 3-isopropyl-N-(5-((2-(1-methyl-1H-pyrazol-4-yl)pyridin-4-yl)oxy)pyridin-2-yl)-2-oxoimidazolidine-1-carboxamide] | < 10 | – | – | –
2 | 10 to 100 | 10 to 100 | 100 to 1000 | 10 to 100 | [2H]C([2H])([2H])n1cc(-c2cc(Oc3ccc(NC(=O)N4CCN(CCOC)C4=O)nc3C)ccn2)cn1 [Example 39, 3-(2-methoxyethyl)-N-(6-methyl-5-((2-(1-(trideuteromethyl)-1H-pyrazol-4-yl)pyridin-4-yl)oxy)pyridin-2-yl)-2-oxoimidazolidine-1-carboxamide] | 100 to 1000 | – | – | –
3 | < 10 | < 10 | 100 to 1000 | 10 to 100 | Cc1nc(NC(=O)N2CCN(CC(F)(F)F)C2=O)ccc1Oc1ccnc(-c2cnn(C)c2)c1 [Example 43, N-(6-methyl-5-((2-(1-methyl-1H-pyrazol-4-yl)pyridin-4-yl)oxy)pyridin-2-yl)-2-oxo-3-(2,2,2-trifluoroethyl)imidazolidine-1-carboxamide] | < 10 | – | – | –
4 | 10 to 100 | 10 to 100 | > 1000 | 100 to 1000 | CCc1nc(NC(=O)N2CCN(C3CCOCC3)C2=O)ccc1Oc1ccnc(-c2cnn(C)c2)c1 [Example 49, N-(6-ethyl-5-((2-(1-methyl-1H-pyrazol-4-yl)pyridin-4-yl)oxy)pyridin-2-yl)-2-oxo-3-(tetrahydro-2H-pyran-4-yl)imidazolidine-1-carboxamide] | 100 to 1000 | – | – | –
5 | 10 to 100 | 10 to 100 | 10 to 100 | 100 to 1000 | Cc1ccc(-c2cc(Oc3ccc(NC(=O)N4CCN(C5CCOCC5)C4=O)nc3)ccn2)cn1 [Example 52, N-(5-((6′-methyl-[2,3′-bipyridin]-4-yl)oxy)pyridin-2-yl)-2-oxo-3-(tetrahydro-2H-pyran-4-yl)imidazolidine-1-carboxamide] | 10 to 100 | – | – | –
6 | 10 to 100 | 10 to 100 | 100 to 1000 | 100 to 1000 | Cc1ccc(-c2cc(Oc3ccc(NC(=O)N4CCN(C5CCOCC5)C4=O)nc3C)ccn2)cn1 [Example 54, N-(6-methyl-5-((6′-methyl-[2,3′-bipyridin]-4-yl)oxy)pyridin-2-yl)-2-oxo-3-(tetrahydro-2H-pyran-4-yl)imidazolidine-1-carboxamide] | 10 to 100 | – | – | –
7 | 100 to 1000 | 10 to 100 | > 1000 | 100 to 1000 | CCc1nc(NC(=O)N2CCN(CC(F)(F)F)C2=O)ccc1Oc1ccnc(-c2cnn(C)c2)c1 [Example 56, N-(6-ethyl-5-((2-(1-methyl-1H-pyrazol-4-yl)pyridin-4-yl)oxy)pyridin-2-yl)-2-oxo-3-(2,2,2-trifluoroethyl)imidazolidine-1-carboxamide] | 10 to 100 | – | – | –
8 | 10 to 100 | < 10 | > 1000 | 10 to 100 | CCc1nc(NC(=O)N2CCN(C3CCCC3)C2=O)ccc1Oc1ccnc(-c2cnn(C)c2)c1 [Example 57, 3-cyclopentyl-N-(6-ethyl-5-((2-(1-methyl-1H-pyrazol-4-yl)pyridin-4-yl)oxy)pyridin-2-yl)-2-oxoimidazolidine-1-carboxamide] | < 10 | – | – | –
9 | 10 to 100 | 10 to 100 | > 1000 | 10 to 100 | CCc1nc(NC(=O)N2CCN(C3CC3)C2=O)ccc1Oc1ccnc(-c2cnn(C)c2)c1 [Example 58, 3-cyclopropyl-N-(6-ethyl-5-((2-(1-methyl-1H-pyrazol-4-yl)pyridin-4-yl)oxy)pyridin-2-yl)-2-oxoimidazolidine-1-carboxamide] | 10 to 100 | – | – | –
10 | < 10 | < 10 | 100 to 1000 | < 10 | CCN1CCN(C(=O)Nc2ccc(Oc3ccnc(-c4ccc(C5CCN(C)CC5)cc4)c3)c(C)n2)C1=O [Example 61, 3-ethyl-N-(6-methyl-5-((2-(4-(1-methylpiperidin-4-yl)phenyl)pyridin-4-yl)oxy)pyridin-2-yl)-2-oxoimidazolidine-1-carboxamide] | < 10 | – | – | –
11 | < 10 | < 10 | 10 to 100 | 10 to 100 | Cc1cc(NC(=O)N2CCN(C)C2=O)ncc1Oc1ccnc(-c2cnn(C)c2)c1 [Example 85, 3-methyl-N-(4-methyl-5-((2-(1-methyl-1H-pyrazol-4-yl)pyridin-4-yl)oxy)pyridin-2-yl)-2-oxoimidazolidine-1-carboxamide] | 10 to 100 | – | – | –
12 | 10 to 100 | 10 to 100 | 100 to 1000 | 10 to 100 | CCN1CCN(C(=O)Nc2cc(C)c(Oc3ccnc(-n4cnc(C)c4)c3)cn2)C1=O [Example 88, 3-ethyl-N-(4-methyl-5-((2-(4-methyl-1H-imidazol-1-yl)pyridin-4-yl)oxy)pyridin-2-yl)-2-oxoimidazolidine-1-carboxamide] | 10 to 100 | – | – | –
13 | 10 to 100 | 100 to 1000 | 100 to 1000 | 10 to 100 | CCN1CCN(C(=O)Nc2ccc(Oc3ccnc(-c4cnc(C)o4)c3)cn2)C1=O [Example 117, 3-ethyl-N-(5-((2-(2-methyloxazol-5-yl)pyridin-4-yl)oxy)pyridin-2-yl)-2-oxoimidazolidine-1-carboxamide] | 100 to 1000 | – | – | –
14 | 10 to 100 | 10 to 100 | > 1000 | 10 to 100 | CCN1CCN(C(=O)Nc2ccc(Oc3ccnc(-c4ccnc(C)c4)c3)c(C)n2)C1=O [Example 118, 3-ethyl-N-(6-methyl-5-((2′-methyl-[2,4′-bipyridin]-4-yl)oxy)pyridin-2-yl)-2-oxoimidazolidine-1-carboxamide] | 10 to 100 | – | – | –
15 | 10 to 100 | 10 to 100 | 100 to 1000 | 10 to 100 | CC(=O)Nc1cc(Oc2ccc(NC(=O)N3CCN(C4CCOCC4)C3=O)nc2)ccn1 [Example 119, N-(5-((2-acetamidopyridin-4-yl)oxy)pyridin-2-yl)-2-oxo-3-(tetrahydro-2H-pyran-4-yl)imidazolidine-1-carboxamide] | 10 to 100 | – | – | –
16 | < 10 | < 10 | 10 to 100 | 10 to 100 | CN(C)C(=O)Nc1cc(Oc2ccc(NC(=O)N3CCN(C4CCOCC4)C3=O)nc2)ccn1 [Example 120, N-(5-((2-(3,3-dimethylureido)pyridin-4-yl)oxy)pyridin-2-yl)-2-oxo-3-(tetrahydro-2H-pyran-4-yl)imidazolidine-1-carboxamide] | 10 to 100 | – | – | –

Row | SMILES | IC50 (osteoclast precursors) [nM] | IC50 [1, 4] [nM] | IC50 [2] [nM] | IC50 [3, 5] [nM] | IC50 (M-NFS-60 cells) [nM] | IC50 ([1]; uFMS, enzymatic assay, ATP 500 μM) [nM] | IC50 [3] [nM] | IC50 ([1]; Table 4, read-out: c-FMS IC50) [nM]
17 | Cc1nc(NC(=O)N2CCN(C)C2=O)ccc1Oc1ccnc(-c2cnn(C)c2)c1 [Example 41, 3-methyl-N-(6-methyl-5-((2-(1-methyl-1H-pyrazol-4-yl)pyridin-4-yl)oxy)pyridin-2-yl)-2-oxoimidazolidine-1-carboxamide] | 10 to 100 | – | > 1000 | – | 100 to 1000 | 10 to 100 | 10 to 100 | –
18 | CCN1CCN(C(=O)Nc2ccc(Oc3ccnc(-c4cnn(C)c4)c3)c(C)n2)C1=O [Example 42, 3-ethyl-N-(6-methyl-5-((2-(1-methyl-1H-pyrazol-4-yl)pyridin-4-yl)oxy)pyridin-2-yl)-2-oxoimidazolidine-1-carboxamide] | < 10 | < 10 | 100 to 1000 | 10 to 100 | 10 to 100 | – | – | 8

Reference: patent US9133183B2, “Imidazolidinones and analogs exhibiting anti-cancer and anti-proliferative activities” (Deciphera Pharmaceuticals, LLC, priority 2013, dated 2015)
